From ChEMBL document CHEMBL3352087 (J Med Chem, 2014) come the findings set out here.

SMILES strings stand for the structures. pIC50: −log10 of the molar value. A value given as a limit tells only on which side of the number the result lay.

As usually defined, the pIC50 is −log10 of the IC50, conventionally taken in molar units. Usually Papp A→B stands for how fast a substance crosses the layer from the apical side. Usually efflux ratio stands for a quotient of directional permeabilities that is used to spot active efflux. For orientation: fraction unbound means free concentration divided by total concentration. Higher therefore signals much free substance.

Data set [1] has as its target T1, Beta-secretase 1 (Homo sapiens, UniProt P56817). Put plainly: Inhibition of purified recombinant human BACE1 expressed in CHO cells assessed as uncleaved biotinylated sAPP after 2 hrs by HTRF assay. On the technique in general: TR-FRET usually uses a lanthanide donor and a delayed reading to cut background.
Data set [2] addresses T1, Beta-secretase 1. Put plainly: Inhibition of BACE1 in HEK293 cells expressing swedish double mutant APP assessed as amyloid beta (1 to 40) peptide level after 7 hrs by HTRF assay. In kind it is cell-based.
Data set [3] concerns MDR1 (human). Put plainly: Apparent permeability from apical to basolateral side in pig LLC-PK1 cells transfected with human MDR1. Type of data set: ADME, cell-based, Sus scrofa. The note with it: LLC-PK1.
The test system of another data set is CHO. Put plainly: Ratio of IC50 for cathepsin D purified from human spleen to IC50 for purified recombinant human BACE1 expressed in CHO cells.
For data set [4], the system named is MDR1 (human). Put plainly: Efflux ratio of permeability from basolateral to apical side to apical to basolateral side in pig LLC-PK1 cells transfected with human MDR1 at 1 uM. In kind it is ADME, cell-based, Sus scrofa. The note with it: LLC-PK1.
Data set [5] relates to Brain. Put plainly: Free drug level in CD-1 mouse brain at 3 mg/kg, iv and 10 mg/kg, po measured at 1 hr post dose. In kind it is ADME, organism-based. The note with it: in vivo.
The next data set deals with Mus musculus. Put plainly: Unbound clearance in CD-1 mouse at 3 mg/kg, iv and 10 mg/kg, po. Type of data set: ADME, organism-based. The note with it: in vivo.
Data set [6] concerns Brain. Put plainly: Free drug level in CD-1 mouse brain at 3 mg/kg, iv and 10 mg/kg, po measured at 4 hrs post dose. In kind it is ADME, organism-based. The note with it: in vivo.
A short description of data set [7]: Fraction unbound in CD-1 mouse plasma. In kind it is ADME, cell-free.
The nature of data set [8]: Ratio of free drug level in brain to plasma of CD-1 mouse brain at 3 mg/kg, iv and 10 mg/kg, po measured at 4 hrs post dose. Type of data set: ADME, organism-based. The note with it: read-out: BPR.
Data set [9] in a line: Ratio of free drug level in brain to plasma of CD-1 mouse at 3 mg/kg, iv and 10 mg/kg, po measured at 1 hr post dose. The note with it: read-out: BPR. In kind it is ADME, organism-based.
The nature of data set [10]: Systemic clearance in CD-1 mouse at 3 mg/kg, iv and 10 mg/kg, po. Type of data set: ADME, organism-based. The note with it: in vivo, read-out: CLH.
Data set [11] deals with Plasma. Put plainly: Free plasma concentration in CD-1 mouse at 3 mg/kg, iv and 10 mg/kg, po measured at 1 hr post dose. In kind it is ADME, organism-based. The note with it: in vivo.
A short description of data set [12]: Ratio of free drug level in brain of CD-1 mouse at 3 mg/kg, iv and 10 mg/kg, po measured at 4 hrs post dose to IC50 for BACE1 in HEK293 cells expressing swedish double mutant APP. Type of data set: ADME, organism-based. The note with it: hek293, 4 h.
A short description of data set [13]: Ratio of free drug level in brain of CD-1 mouse at 3 mg/kg, iv and 10 mg/kg, po measured at 1 hr post dose to IC50 for BACE1 in HEK293 cells expressing swedish double mutant APP. The note with it: hek293, 1 h. In kind it is ADME, organism-based.
Data set [14] can be described thus: Fraction unbound in CD-1 mouse brain. In kind it is ADME, tissue-based.
For data set [15], the system named is Plasma. Put plainly: Free plasma concentration in CD-1 mouse at 3 mg/kg, iv and 10 mg/kg, po measured at 4 hrs post dose. In kind it is ADME, organism-based. The note with it: in vivo.

T1 sequence (P56817 whole entry): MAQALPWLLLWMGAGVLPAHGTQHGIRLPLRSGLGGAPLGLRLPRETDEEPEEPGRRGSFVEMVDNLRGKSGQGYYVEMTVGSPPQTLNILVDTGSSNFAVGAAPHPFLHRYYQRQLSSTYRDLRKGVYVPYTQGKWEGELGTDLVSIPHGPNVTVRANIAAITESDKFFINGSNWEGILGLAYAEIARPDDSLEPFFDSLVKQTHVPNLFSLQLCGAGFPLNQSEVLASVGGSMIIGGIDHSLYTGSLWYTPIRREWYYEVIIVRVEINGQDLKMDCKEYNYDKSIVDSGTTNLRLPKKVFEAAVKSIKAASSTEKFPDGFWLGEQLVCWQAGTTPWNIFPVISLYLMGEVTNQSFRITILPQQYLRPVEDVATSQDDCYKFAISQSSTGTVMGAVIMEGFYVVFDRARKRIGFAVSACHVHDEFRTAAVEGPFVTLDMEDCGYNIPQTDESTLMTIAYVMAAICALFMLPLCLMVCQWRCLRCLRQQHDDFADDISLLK

In the case of `NC1=N[C@@]2(CO1)c1cc(-c3cccnc3F)ccc1O[C@@H]1CCCO[C@H]12`, the pIC50 at Beta-secretase 1 [1] is 5.96; at Beta-secretase 1 [2], 6.12.
Regarding `CN1C(=O)[C@]2(N=C1N)c1cc(-c3cccnc3F)ccc1O[C@@]1(C)CCCO[C@@H]12` (relative stereo), the pIC50 was 7.89 at Beta-secretase 1 [1] and 8.24 on Beta-secretase 1 [2]. In addition, the Papp A→B with MDR1 (human) [3] worked out at 5.3 ×10⁻⁶ cm/s. Further, the Ratio IC50 with CHO was 510. Further, the efflux ratio at 1 µM with MDR1 (human) [4] was 110.
Taken in the same sequence, the figures for `C[C@]12CCCO[C@@H]1[C@]1(CSC(N)=N1)c1cc(-c3cccnc3F)ccc1O2` (relative stereo) were 7.57, 7.07, 31 ×10⁻⁶ cm/s, 890 and 2.
Regarding `C[C@]12CCCO[C@@H]1[C@]1(COC(N)=N1)c1cc(-c3cccnc3F)ccc1O2` (relative stereo), the values for the Drug uptake in the data set with Brain [5] and in the data set with Brain [6] were 6 nM and 1.1 nM, respectively. The compound also displayed a CL free with Mus musculus of 1300 mL/min/kg. Also, the pIC50 is 7.12 on Beta-secretase 1 [1] and 7.22 at Beta-secretase 1 [2]. For the same compound, the Papp A→B in the data set with MDR1 (human) [3] came to 29 ×10⁻⁶ cm/s. In addition, the fraction unbound in data set [7] was determined as 0.11; in data set [14], 0.04. Further, the Ratio IC50 in the data set with CHO is 430. Besides, the Kp uu at 4 h in data set [8] came to 0.16. For the same compound, the Kp uu at 1 h in data set [9] stood at 0.16. For the same compound, the clearance in [10] amounted to 150 mL/min/kg. In addition, the “Cp(f)” value in the data set on Plasma [11] is 37 nM; with Plasma [15], 6.8 nM. Moreover, the Ratio was found to be 0.018 in data set [12] and 0.1 in data set [13]. Further, the efflux ratio at 1 µM with MDR1 (human) [4] was determined as 6.2.
With `C[C@]12CCCO[C@@H]1[C@]1(COC(N)=N1)c1cc(-c3cncnc3)ccc1O2` (single isomer, unassigned), the pIC50 at Beta-secretase 1 [1] is 7.05; on Beta-secretase 1 [2], 7.25. Moreover, the Papp A→B in the data set with MDR1 (human) [3] turned out to be 23 ×10⁻⁶ cm/s. In addition, the Ratio IC50 with CHO is > 2200. Besides, the efflux ratio at 1 µM in the data set with MDR1 (human) [4] worked out at 9.8.
Regarding `C[C@]12CCCO[C@@H]1[C@]1(COC(N)=N1)c1cc(-c3cccc(C#N)c3)ccc1O2` (racemic) [listing 1 of 2 here], the Drug uptake is given as 13 nM with Brain [5] and 7.5 nM in the data set with Brain [6]. Besides, in the data set on Mus musculus, the CL free is 870 mL/min/kg. Besides, the figures for the pIC50 at Beta-secretase 1 [1] and on Beta-secretase 1 [2] were 7.01 and 7.00, respectively. In addition, the Papp A→B with MDR1 (human) [3] came out at 30 ×10⁻⁶ cm/s. Further, the fraction unbound in [7] was 0.039; in data set [14], 0.013. Further, in data set [8], the Kp uu at 4 h was 0.21. Further, the Kp uu at 1 h in data set [9] was found to be 0.24. The clearance in data set [10] is 34 mL/min/kg. For the same compound, the “Cp(f)” value in the data set with Plasma [11] was 54 nM; in the data set with Plasma [15], 35 nM. Besides, the values for the Ratio in [12] and in [13] were 0.075 and 0.13, respectively. Besides, in the data set with MDR1 (human) [4], the efflux ratio at 1 µM came out at 3.2.
Consider `C[C@]12CCCO[C@@H]1[C@]1(COC(N)=N1)c1cc(-c3cccc(C#N)c3)ccc1O2` (racemic) [listing 2 of 2 here], for which the Ratio IC50 in the data set with CHO was found to be 840.
Consider `CN1C(=O)[C@]2(N=C1N)c1cc(-c3cccnc3F)ccc1O[C@H]1CCCO[C@@H]12` (relative stereo), for which the Drug uptake in the data set with Brain [5] is given as 1.7 nM; with Brain [6], 1.6 nM. In the data set with Mus musculus, this compound yielded a CL free of 600 mL/min/kg. For the same compound, the pIC50 at Beta-secretase 1 [1] is 7.32; on Beta-secretase 1 [2], 7.92. Also, in the data set on MDR1 (human) [3], the Papp A→B was found to be 6.8 ×10⁻⁶ cm/s. In addition, the fraction unbound turned out to be 0.18 in [7] and 0.037 in data set [14]. Further, the Ratio IC50 in the data set on CHO stood at 50. Moreover, in data set [8], the Kp uu at 4 h was determined as 0.044. The Kp uu at 1 h in data set [9] was determined as 0.014. Besides, the clearance in [10] worked out at 110 mL/min/kg. Besides, the “Cp(f)” value in the data set on Plasma [11] was 120 nM; in the data set with Plasma [15], 36 nM. For the same compound, the Ratio was 0.13 in data set [12] and 0.14 in data set [13]. In addition, in the data set with MDR1 (human) [4], the efflux ratio at 1 µM was found to be 31.
Take `C[C@]12CCCO[C@@H]1[C@]1(COC(N)=N1)c1cc(-c3cccc(C#N)c3)ccc1O2`: the Ratio IC50 with CHO was found to be 1300.
Consider `C[C@@]12CCCO[C@H]1[C@]1(COC(N)=N1)c1cc(-c3cccnc3F)ccc1O2` (relative stereo), for which the pIC50 is 6.68 at Beta-secretase 1 [1] and 6.89 at Beta-secretase 1 [2]. In addition, in the data set on MDR1 (human) [3], the Papp A→B was determined as 33 ×10⁻⁶ cm/s. Also, the Ratio IC50 in the data set on CHO came out at 48. In addition, in the data set with MDR1 (human) [4], the efflux ratio at 1 µM was determined as 4.8.
In the case of `CN1C(=O)[C@]2(N=C1N)c1cc(-c3cccnc3F)ccc1O[C@H]1CCOC[C@@H]12`, the Drug uptake with Brain [5] amounted to 11 nM; in the data set on Brain [6] it was 8.4 nM. Moreover, the CL free with Mus musculus is 330 mL/min/kg. Further, the clearance in data set [10] is 70 mL/min/kg. In addition, the “Cp(f)” value in the data set with Plasma [11] was 320 nM; in the data set with Plasma [15] it was 75 nM.
Take `C[C@]12CCCO[C@@H]1[C@]1(CSC(N)=N1)c1cc(-c3cncnc3)ccc1O2` (relative stereo): the pIC50 is 7.25 on Beta-secretase 1 [1] and 7.09 on Beta-secretase 1 [2]. Also, in the data set on MDR1 (human) [3], the Papp A→B is 29 ×10⁻⁶ cm/s. For the same compound, in the data set on CHO, the Ratio IC50 came to 1100. For the same compound, the efflux ratio at 1 µM in the data set on MDR1 (human) [4] worked out at 3.1.
For `C[C@]12CCCO[C@@H]1[C@]1(CSC(N)=N1)c1cc(-c3cccc(C#N)c3)ccc1O2` (relative stereo) the same measures were 7.39, 6.85, 14 ×10⁻⁶ cm/s, 680 and 1.8.
Consider `CN1C(=O)[C@]2(N=C1N)c1cc(-c3cccnc3F)ccc1O[C@@H]1CCCO[C@H]12` (relative stereo), for which the pIC50 at Beta-secretase 1 [1] was 6.15; at Beta-secretase 1 [2] it was 5.72. In addition, the Ratio IC50 with CHO was determined as 19.
`C[C@]12CCCO[C@@H]1[C@]1(CSC(N)=N1)c1cc(-c3cc(F)cc(Cl)c3)ccc1O2` (relative stereo): the pIC50 at Beta-secretase 1 [1] is 7.39; at Beta-secretase 1 [2], 6.96. Also, in the data set with MDR1 (human) [3], the Papp A→B worked out at 1.4 ×10⁻⁶ cm/s. The Ratio IC50 with CHO was determined as 830. The efflux ratio at 1 µM with MDR1 (human) [4] worked out at 1.2.
Taken in the same sequence, the figures for `C[C@]12CCCO[C@@H]1[C@]1(COC(N)=N1)c1cc(-c3cncc(Cl)c3)ccc1O2` (racemic) were 7.28, 7.43, 25 ×10⁻⁶ cm/s, 2100 and 7.1.
For `CN1C(=O)[C@]2(N=C1N)c1cc(-c3cccnc3F)ccc1O[C@]1(C)CCCO[C@H]12` (relative stereo), the pIC50 on Beta-secretase 1 [1] is 7.59; at Beta-secretase 1 [2] it was 7.43. In addition, in the data set with MDR1 (human) [3], the Papp A→B was 6 ×10⁻⁶ cm/s. Besides, the Ratio IC50 in the data set on CHO was determined as 69. Besides, the efflux ratio at 1 µM with MDR1 (human) [4] was 31.
For `C[C@]12CCCO[C@@H]1[C@]1(COC(N)=N1)c1cc(-c3cc(F)cc(Cl)c3)ccc1O2` (relative stereo) the same measures were 7.26, 7.03, 5.6 ×10⁻⁶ cm/s, 530 and 1.7.
Regarding `NC1=N[C@@]2(CS1)c1cc(-c3cccnc3F)ccc1O[C@@H]1CCCO[C@H]12`, the results for the pIC50 at Beta-secretase 1 [1] and at Beta-secretase 1 [2] were 6.09 and 6.26, respectively. Also, the Papp A→B in the data set with MDR1 (human) [3] came out at 37 ×10⁻⁶ cm/s. For the same compound, the Ratio IC50 in the data set on CHO was > 250. In addition, the efflux ratio at 1 µM in the data set with MDR1 (human) [4] is 1.2.
For `C[C@]12CCCO[C@@H]1[C@]1(CSC(N)=N1)c1cc(-c3cncc(Cl)c3)ccc1O2` (relative stereo), the values for the pIC50 on Beta-secretase 1 [1] and at Beta-secretase 1 [2] were 7.29 and 7.32, respectively. The Papp A→B with MDR1 (human) [3] was found to be 12 ×10⁻⁶ cm/s. For the same compound, the Ratio IC50 with CHO worked out at 1100. The efflux ratio at 1 µM with MDR1 (human) [4] worked out at 3.3.
